One experiment concerns the target T1, rice α-glucosidase (Oryza sativa subsp. japonica, UniProt Q653V7).
T1 construct: purchased Sigma Chemical Co
The experiment in a line: Inhibition of rice α-glucosidase (disaccharide substrate, glucose colorimetry). It counts as biochemical. The note with it: rice enzyme. From the text: (§1) The α-glucosidases of rice and of yeast, as well as the β-glucosidases of sweet almond and Caldocellum saccharolyticum are obtained from Sigma Chemical Co. ‘Brush border’ membranes prepared from rat small intestine according to Kessler's method (Kessler, M.; Acuto, O.; Strelli, C.; Murer, H.; Semenza, G. A. Biochem. Biophys. Acta 1978, 506, 136) were used as a source of intestinal maltase, sucrase and isomaltase. The activities of rice α-glucosidase as well as of the intestinal glucosidases were determined using an appropriate disaccharide as substrate. The D-glucose thus released was assayed by colorimetry using the Wako glucose B-test (Wako Pure Chemical Ind., Japan). The activities on the other glycosidases were determined using the appropriate p-nitrophenyl glycoside as a substrate with the optimum pH of each enzyme. The reaction is stopped by adding 400 mM Na2CO3. The p-nitrophenol thus released was assayed by spectrophotometry at 400 nm. For the β-glucocerebrosidase, the technique used is that described in Kato, A.; Kato, N.; Kano, E.; Adachi, I.; Ikeda, K.; Yu, L.; Okamoto, T.; Banba, Y.; Ouchi, H.; Takahata, H.; Asano, N. Biological properties of D- and L-1-deoxyazasugars. J. Med. Chem. 2005, 48, 2036-2044.

For the next experiment, the target named is maltase. Nature of the experiment: Inhibition of rat intestinal maltase. It counts as biochemical. The conditions noted are these: rat intestine; read-out: IC50 α-glucosidase maltase.
Excerpt: as §1

A further experiment deals with T2, sucrase (Rattus norvegicus, UniProt P23739).
T2 construct: from tissue; host or cells: rat small intestine brush border membranes
T2 sequence (P23739 1-1013 limits assumed): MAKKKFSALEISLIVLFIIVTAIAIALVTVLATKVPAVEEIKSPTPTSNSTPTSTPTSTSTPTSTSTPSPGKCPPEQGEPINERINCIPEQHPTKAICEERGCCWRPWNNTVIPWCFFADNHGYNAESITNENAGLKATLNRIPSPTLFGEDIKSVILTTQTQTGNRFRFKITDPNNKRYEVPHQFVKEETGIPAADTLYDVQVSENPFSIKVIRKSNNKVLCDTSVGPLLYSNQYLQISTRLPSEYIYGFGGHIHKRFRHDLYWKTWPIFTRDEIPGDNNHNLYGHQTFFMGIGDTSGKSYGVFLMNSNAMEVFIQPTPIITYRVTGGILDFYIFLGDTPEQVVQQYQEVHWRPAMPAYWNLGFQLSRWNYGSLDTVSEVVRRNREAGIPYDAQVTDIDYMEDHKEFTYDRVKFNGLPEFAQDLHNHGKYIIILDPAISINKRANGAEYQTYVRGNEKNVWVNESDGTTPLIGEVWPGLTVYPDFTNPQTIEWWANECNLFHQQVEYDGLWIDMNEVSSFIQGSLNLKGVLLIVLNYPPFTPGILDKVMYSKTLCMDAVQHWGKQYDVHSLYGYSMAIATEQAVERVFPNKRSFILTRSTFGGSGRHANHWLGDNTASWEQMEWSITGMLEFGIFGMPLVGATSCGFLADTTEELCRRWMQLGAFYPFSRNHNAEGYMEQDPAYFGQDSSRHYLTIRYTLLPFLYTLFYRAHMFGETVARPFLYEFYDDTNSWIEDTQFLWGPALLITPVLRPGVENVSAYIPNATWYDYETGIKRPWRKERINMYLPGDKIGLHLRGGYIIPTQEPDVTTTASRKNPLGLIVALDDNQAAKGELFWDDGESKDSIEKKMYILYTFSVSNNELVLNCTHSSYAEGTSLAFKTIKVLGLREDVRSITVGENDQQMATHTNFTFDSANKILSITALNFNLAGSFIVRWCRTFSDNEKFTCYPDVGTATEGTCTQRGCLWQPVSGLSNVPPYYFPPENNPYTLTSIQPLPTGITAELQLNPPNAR
T2 sequence (P23739 1014-1841 limits assumed): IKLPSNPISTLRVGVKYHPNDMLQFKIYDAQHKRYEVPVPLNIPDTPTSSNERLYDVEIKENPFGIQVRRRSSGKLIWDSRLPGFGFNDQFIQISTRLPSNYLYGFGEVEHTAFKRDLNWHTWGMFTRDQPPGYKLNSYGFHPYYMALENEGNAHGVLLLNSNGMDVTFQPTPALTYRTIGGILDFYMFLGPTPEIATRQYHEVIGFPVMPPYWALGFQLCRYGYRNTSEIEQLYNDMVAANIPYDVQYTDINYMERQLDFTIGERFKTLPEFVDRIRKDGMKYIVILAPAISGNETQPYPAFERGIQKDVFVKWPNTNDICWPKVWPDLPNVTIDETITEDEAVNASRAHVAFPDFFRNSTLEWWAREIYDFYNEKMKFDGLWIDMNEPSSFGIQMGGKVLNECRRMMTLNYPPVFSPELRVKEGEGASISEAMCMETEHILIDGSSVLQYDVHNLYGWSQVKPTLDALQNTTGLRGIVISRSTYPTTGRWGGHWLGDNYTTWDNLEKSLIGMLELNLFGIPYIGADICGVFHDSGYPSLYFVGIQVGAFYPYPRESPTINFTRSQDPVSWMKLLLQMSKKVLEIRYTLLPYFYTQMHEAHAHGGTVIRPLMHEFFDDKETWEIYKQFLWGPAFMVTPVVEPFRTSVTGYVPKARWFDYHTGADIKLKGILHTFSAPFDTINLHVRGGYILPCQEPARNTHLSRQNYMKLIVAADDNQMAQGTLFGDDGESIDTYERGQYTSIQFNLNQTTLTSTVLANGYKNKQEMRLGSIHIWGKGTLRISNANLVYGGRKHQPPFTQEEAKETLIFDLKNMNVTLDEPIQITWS
Nature of the experiment: Inhibition of rat intestinal sucrase. It counts as biochemical. The conditions noted are these: rat intestine; read-out: IC50 α-glucosidase sucrase.
Excerpt: as §1

A further experiment concerns the target T3, isomaltase (Rattus norvegicus, UniProt P23739).
T3 construct: from tissue; host or cells: rat small intestine brush border membranes
Nature of the experiment: Inhibition of rat intestinal isomaltase. The conditions noted are these: rat intestine; read-out: IC50 α-glucosidase isomaltase. It counts as biochemical.
Excerpt: as §1

Experiment [1] has as its target β-glucosidase sweet almond. The experiment in a line: Inhibition of sweet almond β-glucosidase. It counts as biochemical.
Excerpt: as §1

Experiment [2] deals with T4, β-glucosidase Caldocellum saccharolyticum (Caldicellulosiruptor saccharolyticus, UniProt P10482).
T4 construct: purchased Sigma Chemical Co
T4 sequence (P10482 whole entry): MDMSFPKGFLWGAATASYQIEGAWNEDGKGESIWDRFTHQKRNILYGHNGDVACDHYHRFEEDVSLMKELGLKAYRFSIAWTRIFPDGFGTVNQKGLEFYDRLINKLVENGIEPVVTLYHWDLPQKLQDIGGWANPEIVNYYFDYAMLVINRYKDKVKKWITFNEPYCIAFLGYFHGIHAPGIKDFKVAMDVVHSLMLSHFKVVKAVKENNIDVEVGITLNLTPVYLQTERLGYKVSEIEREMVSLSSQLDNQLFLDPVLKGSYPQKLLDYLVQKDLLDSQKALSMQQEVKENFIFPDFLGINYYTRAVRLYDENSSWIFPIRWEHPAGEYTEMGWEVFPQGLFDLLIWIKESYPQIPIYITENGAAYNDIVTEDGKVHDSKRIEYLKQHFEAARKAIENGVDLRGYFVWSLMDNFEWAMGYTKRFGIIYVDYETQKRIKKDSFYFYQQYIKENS
The experiment in a line: Inhibition of Caldocellum saccharolyticum β-glucosidase. It counts as biochemical.
Excerpt: as §1

Another experiment addresses T5, α-Glucosidase (Homo sapiens, UniProt P10253).
T5 construct: endogenous in cells; host or cells: fibroblasts of Gaucher patients (type 1, 2, 3)
Nature of the experiment: α-Glucosidase activity in Gaucher fibroblasts. It counts as cell-based. The method, then:
(§2) The tests were carried out under the conditions described in: Sawkar, A. R.; Cheng, W.-C.; Beutler, E.; Wong, C.-H.; Balch, W. E.; Kelly, J. W. Chemical chaperones increase the cellular activity of N370S beta-glucosidase: a therapeutic strategy for Gaucher's disease. Proc. Natl. Acad. Sci. U.S.A. 2002, 99, 15428-15433.

A further experiment has as its target T6, α-Mannosidase (Homo sapiens, UniProt O00754).
T6 construct: endogenous in cells; host or cells: fibroblasts of Gaucher patients (type 1, 2, 3)
T6 sequence (O00754 50-1011): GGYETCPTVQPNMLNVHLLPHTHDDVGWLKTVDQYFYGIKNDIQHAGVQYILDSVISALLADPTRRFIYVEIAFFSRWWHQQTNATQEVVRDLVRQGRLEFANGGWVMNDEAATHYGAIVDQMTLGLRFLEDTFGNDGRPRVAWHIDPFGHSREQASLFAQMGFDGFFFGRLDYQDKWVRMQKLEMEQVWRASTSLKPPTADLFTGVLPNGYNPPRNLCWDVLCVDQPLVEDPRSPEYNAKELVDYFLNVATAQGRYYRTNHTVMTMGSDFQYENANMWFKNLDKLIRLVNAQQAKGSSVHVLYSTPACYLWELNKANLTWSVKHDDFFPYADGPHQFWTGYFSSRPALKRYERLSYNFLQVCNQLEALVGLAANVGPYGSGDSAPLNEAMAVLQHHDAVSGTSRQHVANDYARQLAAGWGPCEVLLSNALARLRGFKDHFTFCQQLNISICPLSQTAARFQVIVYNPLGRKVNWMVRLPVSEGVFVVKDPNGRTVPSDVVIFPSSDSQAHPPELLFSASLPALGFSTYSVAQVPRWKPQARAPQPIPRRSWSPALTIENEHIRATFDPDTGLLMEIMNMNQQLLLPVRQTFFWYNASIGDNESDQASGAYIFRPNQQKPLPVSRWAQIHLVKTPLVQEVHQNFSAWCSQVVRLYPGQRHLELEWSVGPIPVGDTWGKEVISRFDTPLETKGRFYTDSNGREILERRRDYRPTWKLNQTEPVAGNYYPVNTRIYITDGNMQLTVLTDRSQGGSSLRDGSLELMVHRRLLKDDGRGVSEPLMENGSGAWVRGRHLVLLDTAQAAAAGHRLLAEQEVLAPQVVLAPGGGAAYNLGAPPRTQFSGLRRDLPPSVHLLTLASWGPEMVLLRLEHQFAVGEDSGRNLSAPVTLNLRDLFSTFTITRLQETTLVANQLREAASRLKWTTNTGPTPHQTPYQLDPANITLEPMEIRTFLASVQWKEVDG
Nature of the experiment: α-Mannosidase activity in Gaucher fibroblasts. It counts as cell-based. The procedure: as §2

Experiment [3] concerns other lysosomal glycosidases. Nature of the experiment: Effects on other lysosomal glycosidases in Gaucher fibroblasts. It counts as cell-based, human. The conditions noted are these: for Effects on the activity of other glycosidases: Gaucher fibroblasts, Table 2.
For experiment [4], the target named is T7, human β-glucocerebrosidase (Homo sapiens, UniProt P04062).
T7 sequence (P04062 40-536): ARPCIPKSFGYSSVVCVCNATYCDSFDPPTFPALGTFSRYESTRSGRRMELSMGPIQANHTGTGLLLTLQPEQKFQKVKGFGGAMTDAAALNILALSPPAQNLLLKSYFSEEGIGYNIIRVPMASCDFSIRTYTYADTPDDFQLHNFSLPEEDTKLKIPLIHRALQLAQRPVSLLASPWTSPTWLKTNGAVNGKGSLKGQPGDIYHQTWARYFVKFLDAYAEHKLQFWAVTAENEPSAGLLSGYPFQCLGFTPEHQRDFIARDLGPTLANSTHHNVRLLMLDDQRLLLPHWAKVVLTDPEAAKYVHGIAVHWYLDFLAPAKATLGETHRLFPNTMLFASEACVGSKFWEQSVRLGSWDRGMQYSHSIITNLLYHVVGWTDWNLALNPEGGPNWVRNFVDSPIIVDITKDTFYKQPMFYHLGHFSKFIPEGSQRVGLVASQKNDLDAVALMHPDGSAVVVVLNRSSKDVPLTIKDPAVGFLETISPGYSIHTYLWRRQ
The experiment in a line: Inhibition tests on human β-glucocerebrosidase. The conditions noted are these: for IC50: read-out: IC50 β-glucocérébrosidase. It counts as biochemical.

Another experiment concerns α-glucosidases. The experiment in a line: Activity on the different α-glucosidases tested. It counts as biochemical.
Excerpt: as §1

The test system of experiment [5] is β-glucocerebrosidase. Nature of the experiment: Intracellular β-glucocerebrosidase activity in type 1 Gaucher fibroblasts. It counts as cell-based, human. The conditions noted are these: factor of residual β-glucocerebrosidase activity, 10 nM.
Experiment [6] has as its system β-glucocerebrosidase. Nature of the experiment: Intracellular β-glucocerebrosidase activity in type 3 Gaucher fibroblasts. The note with it: factor of residual β-glucocerebrosidase activity, 10 nM. It counts as cell-based, human.
The subject of experiment [7] is human β-glucocerebrosidase. Nature of the experiment: Intracellular β-glucocerebrosidase activity in fibroblasts of Gaucher patients (type 1, 2 or 3). It counts as cell-based. The note with it: fibroblasts type 1, 2 or 3; very low quantities.
[8] abbreviates: type 2 Gaucher fibroblasts, 50 μM.

The text below walks through data of patent publication US20080269285A1, “Novel Compounds of the Family of Iminosugars, Uses Thereof for Trewating Lysosomal Diseases, and Method for Preparing Same” (CENTRE NATIONAL DE LA RECHERCHE SCIENTIFIQUE, priority 2005, published 2008).

Where two headings read alike, the source gives them in different places. Some results are limits rather than exact numbers.

T1 sequence (Q653V7 34-885): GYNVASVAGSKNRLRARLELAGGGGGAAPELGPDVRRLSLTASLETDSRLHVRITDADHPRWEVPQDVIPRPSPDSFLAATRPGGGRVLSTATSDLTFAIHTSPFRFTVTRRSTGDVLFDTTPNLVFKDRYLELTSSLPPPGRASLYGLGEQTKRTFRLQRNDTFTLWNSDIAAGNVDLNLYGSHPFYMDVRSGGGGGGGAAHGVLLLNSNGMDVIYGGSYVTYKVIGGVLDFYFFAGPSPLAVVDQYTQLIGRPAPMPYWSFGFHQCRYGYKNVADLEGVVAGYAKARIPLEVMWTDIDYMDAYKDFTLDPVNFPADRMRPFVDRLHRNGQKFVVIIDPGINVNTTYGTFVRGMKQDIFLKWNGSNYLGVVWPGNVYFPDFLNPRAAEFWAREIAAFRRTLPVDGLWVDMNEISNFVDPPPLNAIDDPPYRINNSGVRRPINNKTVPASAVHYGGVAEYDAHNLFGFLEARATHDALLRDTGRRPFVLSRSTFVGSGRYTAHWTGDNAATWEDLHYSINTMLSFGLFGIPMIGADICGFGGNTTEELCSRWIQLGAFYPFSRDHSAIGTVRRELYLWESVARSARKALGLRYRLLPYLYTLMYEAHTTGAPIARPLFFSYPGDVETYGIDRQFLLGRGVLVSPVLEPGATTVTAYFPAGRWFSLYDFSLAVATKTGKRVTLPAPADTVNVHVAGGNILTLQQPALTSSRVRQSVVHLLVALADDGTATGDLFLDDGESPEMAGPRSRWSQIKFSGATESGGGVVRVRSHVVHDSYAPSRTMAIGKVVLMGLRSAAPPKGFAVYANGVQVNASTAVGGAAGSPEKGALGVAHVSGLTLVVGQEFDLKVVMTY
T3 sequence (P23739 1-1013 limits assumed): as the sequence (P23739 1-1013 limits assumed) above
T3 sequence (P23739 1014-1841 limits assumed): as the sequence (P23739 1014-1841 limits assumed) above

One may read the IC50 as the midpoint of a concentration-inhibition curve. For orientation: inhibition means the share of the control response that was lost under treatment. A high value points to a response far below the control. `CCCCCCCCCN1C[C@H](O)[C@@H](O)[C@H](O)[C@H]1CO` [2′, N-nonyl-1-deoxynojirimycin, reference compound]: the 50% inhibitory concentration (IC50) against rice α-glucosidase is 0.08 µM; at maltase, 1.3 µM; on sucrase it was 0.66 µM; at isomaltase, 0.23 µM; in experiment [1] it was 150 µM; in [2], 80 µM. At α-Glucosidase (type 1 Gaucher fibroblasts, 50 μM), this compound yielded an inhibition at 50 µM of 70%. Moreover, the α-Glucosidase inhibition result at α-Glucosidase (setting [8]) and on α-Glucosidase (type 3 Gaucher fibroblasts) was “significant inhibition” throughout. Also, the α-Mannosidase inhibition entry at α-Mannosidase (type 1 Gaucher fibroblasts) is given as “slight inhibition”; at α-Mannosidase (setting [8]), “slight inhibition”; at α-Mannosidase (type 3 Gaucher fibroblasts) it was “no inhibition”. The “Effects on the activity of other glycosidases” value in experiment [3] is “Marked effects”.

The term Ki denotes the dissociation constant of the complex between target and ligand, obtained from inhibition or displacement. As to `CCCCCCCCC[C@H]1NC[C@@H](O)[C@H](O)[C@H]1O` [Compound 1′a, α-1-C-nonyliminoxylitol], the IC50 on rice α-glucosidase was over 1000 µM; at maltase, over 1000 µM; on sucrase, over 1000 µM; on isomaltase, over 1000 µM; in experiment [4] (human enzyme), 0.0068 µM; in [1], 1.9 µM. Further, the half-maximal inhibitory concentration (IC50) in experiment [2] came out at 800 µM. In addition, the “times more active than N-nonyl-1-deoxynojirimycin 2′” value in experiment [4] (human β-glucocerebrosidase) is recorded as 150 times. Moreover, the Ki in experiment [4] (read-out: inhibition constant (Ki) human β-glucocerebrosidase) worked out at 0.002 µM. Also, in the experiment with α-glucosidases, the “activity on the different α-glucosidases tested” value was “no activity”. The “Increase in the enzymatic activity (type 1 fibroblasts)” value is reported as 1.8 with β-glucocerebrosidase [5] and “×1.8 to 10 nM” in the experiment with β-glucocerebrosidase [5] (listed as drawing 105). Further, the figures for the “Increase in the enzymatic activity (type 3 fibroblasts)” value in the experiment with β-glucocerebrosidase [6] and with β-glucocerebrosidase [6] (listed as drawing 105) were 1.9 and “×1.9 to 10 nM”, respectively. Besides, the “residual enzymatic activity of human β-glucocerebrosidase” value in experiment [7] is reported as “double”. For the same compound, at α-Glucosidase (type 1-3 Gaucher fibroblasts), the α-Glucosidases inhibition entry is “no inhibition”. Moreover, the α-Mannosidase inhibition entry at α-Mannosidase (type 1-3 Gaucher fibroblasts) was “no inhibition”. In [3] (10 nM), the “action on other lysosomal glycosidases” value is reported as “without inhibiting the action of other lysosomal glycosidases”. Moreover, the “Effects on the activity of other glycosidases” value in experiment [3] was “No effect”.

Regarding `CCCCCCCCCCCC[C@H]1NC[C@@H](O)[C@H](O)[C@H]1O` [Compound 1′b], in [4] (human enzyme, Table 1, read-out: value of Ki β-glucocérébrosidase (in brackets)), the Ki came out at 0.031 µM. For the same compound, in [4] (human enzyme), the IC50 turned out to be 0.012 µM.
